# Measured values reported in patent US11963995B2, “Methods comprising desmopressin” (Ferring B.V., priority 2008, dated 2024).
# Tested on: adult patients with nocturia
# Experiment: Number of nocturnal voids, change from baseline to Day 28 (Study CS29 Part I)
# Type: in vivo, human
# Settings: for fewer nocturnal urinary voids per night compared to baseline before treatment (median): Day 28; for Change from baseline to final visit (Day 28) of nocturnal voids, mean / Change from baseline to final visit (Day 28) of nocturnal voids, median: ITT, Part I; for minimum effective dose (MED): primary endpoint nocturnal voids
# Description: The term “nocturnal void” as used herein refers to a void occurring from 5 minutes after bedtime until rising in the morning with the intention of getting up.
# All treatments were administered orally once per night approximately 1 hour prior to bedtime; subjects were instructed to limit their fluid intake prior to drug self-administration. […] Randomization was to be stratified by age (<65, ≥65 years) and by the absence/presence of nocturnal polyuria, defined as a ratio of nighttime urine volume/24-hour urine volume 33%. To achieve the desired number of subjects within each stratum, enrollment of subjects in a particular stratum (age and/or presence/absence of nocturnal polyuria) could be halted. If this was necessary, all investigative sites were to be informed in writing at least 1 week in advance to stop screening in a population of subjects.
# A total of 750 subjects were planned to be enrolled, with approximately 150 subjects per treatment group. Part I of the study was conducted in 7 visits. Screening (Visit 1) occurred within 21 days of dosing (Day 1, Visit 2); subjects returned for follow-up visits on Days 4, 8, 15, 22, and 28 (end of Part I). Duration of treatment in Part I was 28 days.
# Subjects who met the following inclusion criteria were eligible for the study: provided written informed consent prior to the performance of any study-related activity, defined as any procedure that would not have been performed during the normal management of the subject; and was a male or female subject, 18 years of age and older, with an average of ≥2 nocturnal voids per night determined via a 3-day frequency-volume chart during the screening period
# All treatments were administered orally once per night approximately 1 hour prior to bedtime. Subjects were instructed to place the tablet under their tongue, without water. Subjects were provided with sufficient study drug for the duration of Part I.
# The primary endpoints for efficacy assessment were: (1) change in mean number of nocturnal voids from baseline evaluation to final visit (Day 28); and (2) proportion of subjects with >33% reduction in the mean number of nocturnal voids from baseline to final visit (Day 28). A further description and corresponding data directed to the second primary endpoint (i.e., portion of subjects with >33% reduction in the mean number of nocturnal voids) are not provided herein.
# Of the 799 randomized subjects in Part I, 757 subjects who received at least 1 dose of study drug and had follow-up data were included in the intent to treat (ITT) analysis dataset. […] All 799 randomized subjects received at least 1 dose of study drug (desmopressin or placebo) and had at least 1 safety assessment and, therefore, were included in the safety analysis dataset.
# Missing values concerning number of nocturnal voids at Day 8, Day 15, Day 22, and Day 28 in Part I were imputed using last observation carried forward (LOCF). Missing values concerning sleep disturbance and urine volume (for average 24-hour urine volume and average nocturnal urine volume) were not imputed.
# [1] = 10 ug, all males with monitoring
# [2] = 10 ug, females over 50 years of age
# [3] = 10 ug, females over 65 years of age
# [4] = 25 ug, all males with monitoring
# [5] = 25 ug, females over 50 years of age
# [6] = 25 ug, females over 65 years of age
# [7] = 50 ug, all males with monitoring
# [8] = 50 ug, females over 50 years of age
# [9] = 50 ug, females over 65 years of age
# [10] = 100 ug, all males with monitoring
# [11] = 100 ug, females over 50 years of age
# [12] = 100 ug, females over 65 years of age
smiles,measurement,setting,value
NC(=O)CC[C@@H]1NC(=O)[C@H](Cc2ccccc2)NC(=O)[C@H](Cc2ccc(O)cc2)NC(=O)CCSSC[C@@H](C(=O)N2CCC[C@H]2C(=O)N[C@H](CCCN=C(N)N)C(=O)NCC(N)=O)NC(=O)[C@H](CC(N)=O)NC1=O [desmopressin],fewer nocturnal urinary voids per night compared to baseline before treatment (median),"10 μg, all females",at least 1.0 voids per night
same,"Change from baseline to final visit (Day 28) of nocturnal voids, mean","10 ug, all females",−1.15
same,"Change from baseline to final visit (Day 28) of nocturnal voids, median","10 ug, all females",−1.00
same,"Change from baseline to final visit (Day 28) of nocturnal voids, mean","10 ug, all groups",−0.83
same,"Change from baseline to final visit (Day 28) of nocturnal voids, median","10 ug, all groups",−0.67
same,"Change from baseline to final visit (Day 28) of nocturnal voids, mean",[1],−0.66
same,"Change from baseline to final visit (Day 28) of nocturnal voids, median",[1],−0.67
same,"Change from baseline to final visit (Day 28) of nocturnal voids, mean","10 ug, all males",−0.54
same,"Change from baseline to final visit (Day 28) of nocturnal voids, median","10 ug, all males",−0.67
same,fewer nocturnal urinary voids per night compared to baseline before treatment (median),"10 μg, females over 50 years of age",at least 1.0 voids per night
same,"Change from baseline to final visit (Day 28) of nocturnal voids, mean",[2],−1.08
same,"Change from baseline to final visit (Day 28) of nocturnal voids, median",[2],−1.00
same,"Change from baseline to final visit (Day 28) of nocturnal voids, mean",[3],−0.93
same,"Change from baseline to final visit (Day 28) of nocturnal voids, median",[3],−0.67
same,fewer nocturnal urinary voids per night compared to baseline before treatment (median),"25 μg, all females",at least 1.0 voids per night
same,"Change from baseline to final visit (Day 28) of nocturnal voids, mean","25 ug, all females",−1.22
same,"Change from baseline to final visit (Day 28) of nocturnal voids, median","25 ug, all females",−1.33
same,"Change from baseline to final visit (Day 28) of nocturnal voids, mean","25 ug, all groups",−1.00
same,"Change from baseline to final visit (Day 28) of nocturnal voids, median","25 ug, all groups",−1.00
same,"Change from baseline to final visit (Day 28) of nocturnal voids, mean",[4],−0.91
same,"Change from baseline to final visit (Day 28) of nocturnal voids, median",[4],−0.67
same,"Change from baseline to final visit (Day 28) of nocturnal voids, mean","25 ug, all males",−0.83
same,"Change from baseline to final visit (Day 28) of nocturnal voids, median","25 ug, all males",−0.67
same,fewer nocturnal urinary voids per night compared to baseline before treatment (median),"25 μg, females over 50 years of age",at least 1.0 voids per night
same,"Change from baseline to final visit (Day 28) of nocturnal voids, mean",[5],−1.35
same,"Change from baseline to final visit (Day 28) of nocturnal voids, median",[5],−1.33
same,fewer nocturnal urinary voids per night compared to baseline before treatment (median),"25 μg, females over 65 years of age",at least 1.67 voids per night
same,"Change from baseline to final visit (Day 28) of nocturnal voids, mean",[6],−1.27
same,"Change from baseline to final visit (Day 28) of nocturnal voids, median",[6],−1.67
same,proportion of subjects with >75% reductions in the mean number of nocturnal voids,"50 μg, Day 28 (placebo 5%)",10%
same,proportion of subjects with >50% reductions in the mean number of nocturnal voids,"50 μg, Day 28 (placebo 20%)",28%
same,proportion of subjects with >33% reductions in the mean number of nocturnal voids,"50 μg, Day 28 (placebo 47%)",53%
same,"Change from baseline to final visit (Day 28) of nocturnal voids, mean","50 ug, all females",−1.23
same,"Change from baseline to final visit (Day 28) of nocturnal voids, median","50 ug, all females",−1.00
same,"Change from baseline to final visit (Day 28) of nocturnal voids, mean","50 ug, all groups",−1.18
same,"Change from baseline to final visit (Day 28) of nocturnal voids, median","50 ug, all groups",−1.00
same,"Change from baseline to final visit (Day 28) of nocturnal voids, mean",[7],−1.09
same,"Change from baseline to final visit (Day 28) of nocturnal voids, median",[7],−1.00
same,"Change from baseline to final visit (Day 28) of nocturnal voids, mean","50 ug, all males",−1.13
same,"Change from baseline to final visit (Day 28) of nocturnal voids, median","50 ug, all males",−1.00
same,"Change from baseline to final visit (Day 28) of nocturnal voids, mean",[8],−1.15
same,"Change from baseline to final visit (Day 28) of nocturnal voids, median",[8],−1.00
same,"Change from baseline to final visit (Day 28) of nocturnal voids, mean",[9],−0.97
same,"Change from baseline to final visit (Day 28) of nocturnal voids, median",[9],−1.00
same,"Change from baseline to final visit (Day 28) of nocturnal voids, mean","100 ug, all females",−1.51
same,"Change from baseline to final visit (Day 28) of nocturnal voids, median","100 ug, all females",−1.33
same,"Change from baseline to final visit (Day 28) of nocturnal voids, mean","100 ug, all groups",−1.43
same,"Change from baseline to final visit (Day 28) of nocturnal voids, median","100 ug, all groups",−1.33
same,"Change from baseline to final visit (Day 28) of nocturnal voids, mean",[10],−1.41
same,"Change from baseline to final visit (Day 28) of nocturnal voids, median",[10],−1.67
same,"Change from baseline to final visit (Day 28) of nocturnal voids, mean","100 ug, all males",−1.38
same,"Change from baseline to final visit (Day 28) of nocturnal voids, median","100 ug, all males",−1.33
same,"Change from baseline to final visit (Day 28) of nocturnal voids, mean",[11],−1.44
same,"Change from baseline to final visit (Day 28) of nocturnal voids, median",[11],−1.33
same,"Change from baseline to final visit (Day 28) of nocturnal voids, mean",[12],−1.00
same,"Change from baseline to final visit (Day 28) of nocturnal voids, median",[12],−1.00
same,minimum effective dose (MED),females,25 µg
same,minimum effective dose (MED),males,100 µg
